Experiments:
L1210 [1] = assay: Cytotoxicity against mouse L1210 cells after 48 hrs by microculture tetrazolium assay; type: functional, cell-based; conditions: L1210, 48 h
L1210 [2] = assay: Cell cycle arrest in mouse L1210 cells assessed as accumulation at G1 phase at 10 uM after 21 hrs using propidium iodide staining by flow cytometry; type: functional
L1210 [3] = assay: Cell cycle arrest in mouse L1210 cells assessed as accumulation at S phase at 10 uM after 21 hrs using propidium iodide staining by flow cytometry; type: functional
[4] = Cytotoxicity against human KB3-1 cells after 96 hrs by microculture tetrazolium assay; type: functional, cell-based; conditions: KB 3-1, 96 h
L1210 [5] = assay: Cell cycle arrest in mouse L1210 cells assessed as accumulation at G2M phase at 10 uM after 21 hrs using propidium iodide staining by flow cytometry; type: functional

| Structure (SMILES) | IC50 (L1210 [1]) | Activity (L1210 [2]) | Activity (L1210 [3]) | IC50 [4] | Activity (L1210 [5]) |
| --- | --- | --- | --- | --- | --- |
| CC(C)(C)C(=O)OCC1=C[C@@H](OC(=O)C(C)(C)C)C2=CC(=O)O[C@@H](O[C@@H]3O[C@H](COC(=O)C(C)(C)C)[C@@H](OC(=O)C(C)(C)C)[C@H](OC(=O)C(C)(C)C)[C@H]3OC(=O)C(C)(C)C)[C@H]12 | 4 µM | 36% | 19% | 0.42 µM | 45% |
| CC1=C[C@@H](OC(=O)C(C)(C)C)C2=CC(=O)O[C@@H](O[C@@H]3O[C@H](COC(=O)C(C)(C)C)[C@@H](OC(=O)C(C)(C)C)[C@H](OC(=O)C(C)(C)C)[C@H]3OC(=O)C(C)(C)C)[C@H]12 | 24.8 µM | – | – | 7.2 µM | – |
